#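 Protocol summary: plate cells (96-well), add compound at 5 concentrations, incubate 48 h, interpolate endpoints linearly. At the GI50, growth is halved.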 Calls of active or inactive are those of the source. Rule as the data show it: active = GI50 up to about 1.1 µM and inactive = higher.
# Columns and labels:
# Experiment in all cases: NCI-60 cell line screen, 48 h
# [1] = tested on: 786-0
# [2] = tested on: ACHN
# [3] = tested on: CCRF-CEM
# [4] = tested on: DMS-273
# [5] = tested on: HCT-15
# [6] = tested on: HL-60
# [7] = tested on: HOP-62
# [8] = tested on: NCI-H23
# [9] = tested on: OVCAR-3
# [10] = tested on: RXF 393
# [11] = tested on: SK-MEL-28
# [12] = tested on: SK-MEL-2
# [13] = tested on: SK-MEL-5
# [14] = tested on: SN12C
# [15] = tested on: SW-620
# [16] = tested on: SNB-19
# [17] = tested on: DU-145
# [18] = tested on: MCF7
# [19] = tested on: MDA-N
# [20] = tested on: PC-3
SMILES,GI50 [1],GI50 [2],GI50 [3],GI50 [4],GI50 [5] [µM],GI50 [6],GI50 [7],GI50 [8],GI50 [9],GI50 [10],GI50 [11],GI50 [12],GI50 [13],GI50 [14],GI50 [15],GI50 [16],GI50 [17],GI50 [18],GI50 [19],GI50 [20]
COCCOCC(=O)N(CCn1ccc(NC(c2ccccc2)(c2ccccc2)c2ccccc2)nc1=O)CCn1cnc2nc(N)[nH]c(=O)c21,> 100 µM (inactive),> 100 µM (inactive),> 100 µM (inactive),> 100 µM (inactive),> 100,> 100 µM (inactive),> 100 µM (inactive),> 100 µM (inactive),> 100 µM (inactive),> 100 µM (inactive),> 100 µM (inactive),> 100 µM (inactive),> 100 µM (inactive),> 100 µM (inactive),> 100 µM (inactive),–,–,–,–,–
CC(=O)OC[C@@H]1[C@H]2CC(=O)O[C@H]2C[C@H]1OC(C)=O,> 100 µM (inactive),> 100 µM (inactive),> 100 µM (inactive),> 100 µM (inactive),> 100,> 100 µM (inactive),> 100 µM (inactive),–,> 100 µM (inactive),> 100 µM (inactive),> 100 µM (inactive),–,> 100 µM (inactive),> 100 µM (inactive),> 100 µM (inactive),> 100 µM (inactive),–,–,–,–
Nc1ccn([C@@H]2C=C(CO)[C@@H](O)[C@H]2O)c(=O)n1,0.103 µM (active),0.0559 µM (active),0.0617 µM (active),0.256 µM (active),0.0916,0.05 µM (active),0.102 µM (active),0.169 µM (active),2.2 µM (inactive),0.53 µM (active),0.298 µM (active),10 µM (inactive),1.06 µM (active),0.0546 µM (active),0.0849 µM (active),0.244 µM (active),0.0261 µM (active),0.05 µM (active),0.0353 µM (active),0.0555 µM (active)
Cc1ccc(/C=N/NS(=O)(=O)c2ccccc2)cc1,> 100 µM (inactive),> 100 µM (inactive),> 100 µM (inactive),> 100 µM (inactive),> 100,> 100 µM (inactive),> 100 µM (inactive),> 100 µM (inactive),> 100 µM (inactive),> 100 µM (inactive),> 100 µM (inactive),> 100 µM (inactive),> 100 µM (inactive),> 100 µM (inactive),> 100 µM (inactive),–,–,–,–,–
CC1(C)C(O)OC(O)C1(C)C (configuration not stated),93.1 µM (inactive),> 100 µM (inactive),46 µM (inactive),70.5 µM (inactive),28.1,42.9 µM (inactive),> 100 µM (inactive),–,30.9 µM (inactive),32.6 µM (inactive),43.4 µM (inactive),89.7 µM (inactive),32.8 µM (inactive),82.2 µM (inactive),49.7 µM (inactive),66.8 µM (inactive),–,–,–,–
COc1ccc(OC)c(/C=C/c2cnnc3ccccc23)c1,6.67 µM (inactive),> 10 µM (inactive),3.38 µM (inactive),–,1.96,2.79 µM (inactive),4.12 µM (inactive),4.8 µM (inactive),3.94 µM (inactive),2.25 µM (inactive),8.47 µM (inactive),2.16 µM (inactive),3.61 µM (inactive),4.17 µM (inactive),3.06 µM (inactive),6.46 µM (inactive),> 10 µM (inactive),1.85 µM (inactive),0.741 µM (active),7.69 µM (inactive)
COc1ccc(C(c2ccc(C(C)C)cc(OC)c2=O)c2ccc(C(C)C)cc(OC)c2=O)cc1,16.6 µM (inactive),–,10.2 µM (inactive),14.8 µM (inactive),12.7,12.2 µM (inactive),21 µM (inactive),16.3 µM (inactive),13.2 µM (inactive),4.15 µM (inactive),–,15.9 µM (inactive),14.3 µM (inactive),16.1 µM (inactive),15.5 µM (inactive),15.9 µM (inactive),–,–,–,–
CC[C@@]1(OC(=O)C(N)CCCCN)C(=O)OCc2c1cc1n(c2=O)Cc2cc3ccccc3nc2-1 (some centres not stated),0.0148 µM (active),0.0135 µM (active),< 0.01 µM (active),< 0.01 µM (active),0.248,< 0.0132 µM (active),< 0.0148 µM (active),0.0219 µM (active),0.352 µM (active),0.122 µM (active),0.442 µM (active),0.5 µM (active),0.0377 µM (active),< 0.0149 µM (active),0.04 µM (active),0.0176 µM (active),< 0.0199 µM (active),0.021 µM (active),0.167 µM (active),0.171 µM (active)

# From ChEMBL document CHEMBL1201862, “PubChem BioAssay data set” (2004)
